The structures appear in SMILES notation. Active and inactive are the calls of the source. The calls are words filed in the database; no cut-off is given here.

Data set [1] concerns Mus musculus. The data set is described as follows: Anticonvulsant activity in albino CF1 mouse assessed as protection against maximal electroshock-induced seizures at 100 mg/kg, ip measured after 0.25 hr. Also noted: dose 100 mg/kg. It counts as functional, organism-based.
Data set [2] relates to Mus musculus. Briefly: Anticonvulsant activity in albino CF1 mouse assessed as protection against maximal electroshock-induced seizures at 100 mg/kg, ip measured after 1 hr. The data set is classed as functional, organism-based. The arrangement: dose 100 mg/kg.
The test system of data set [3] is Mus musculus. The data set is described as follows: Neurotoxicity in albino CF1 mouse at 100 mg/kg, ip measured after 0.25 hr. The arrangement: dose 100 mg/kg, route intraperitoneal. The note with it: in vivo. It counts as toxicity, organism-based.
For data set [4], the system named is Mus musculus. Briefly: Neurotoxicity in albino CF1 mouse at 100 mg/kg, ip measured after 1 hr. The note with it: in vivo. The data set is classed as toxicity, organism-based. The arrangement: dose 100 mg/kg, route intraperitoneal.
Data set [5] concerns Mus musculus. Briefly: Anticonvulsant activity in albino CF1 mouse assessed as protection against 32 mA current-induced seizures at 100 mg/kg, ip measured after 0.25 hr. It counts as functional, organism-based. The arrangement: dose 100 mg/kg.
Data set [6] relates to Mus musculus. The data set is described as follows: Anticonvulsant activity in albino CF1 mouse assessed as protection against 32 mA current-induced seizures at 100 mg/kg, ip measured after 1 hr. The data set is classed as functional, organism-based. Also noted: dose 100 mg/kg.
Data set [7] relates to Mus musculus. Briefly: Neurotoxicity in 32 mA current-induced seizure albino CF1 mouse model at 100 mg/kg, ip measured after 0.25 hr. The data set is classed as toxicity, organism-based. Also noted: dose 100 mg/kg, route intraperitoneal. The note with it: in vivo.
For data set [8], the system named is Mus musculus. Briefly: Neurotoxicity in 32 mA current-induced seizure albino CF1 mouse model at 100 mg/kg, ip measured after 1 hr. The note with it: in vivo. It counts as toxicity, organism-based. Also noted: dose 100 mg/kg, route intraperitoneal.
Data set [9] concerns Mus musculus. The data set is described as follows: Anticonvulsant activity in albino CF1 mouse assessed as protection against maximal electroshock-induced seizures at 100 mg/kg, ip measured after 0.5 hr. The arrangement: dose 100 mg/kg. It counts as functional, organism-based.
Data set [10] deals with Mus musculus. Briefly: Anticonvulsant activity in albino CF1 mouse assessed as protection against maximal electroshock-induced seizures at 100 mg/kg, ip measured after 4 hrs. It counts as functional, organism-based. The arrangement: dose 100 mg/kg.
The subject of data set [11] is Mus musculus. Briefly: Anticonvulsant activity in albino CF1 mouse assessed as protection against subcutaneous metrazol-induced seizures at 100 mg/kg, ip measured after 0.25 hr. The arrangement: dose 100 mg/kg. The data set is classed as functional, organism-based.
Data set [12] concerns Mus musculus. The data set is described as follows: Anticonvulsant activity in albino CF1 mouse assessed as protection against subcutaneous metrazol-induced seizures at 100 mg/kg, ip measured after 0.5 hr. The data set is classed as functional, organism-based. The arrangement: dose 100 mg/kg.
Data set [13] deals with Mus musculus. Briefly: Anticonvulsant activity in albino CF1 mouse assessed as protection against subcutaneous metrazol-induced seizures at 100 mg/kg, ip measured after 1 hr. The data set is classed as functional, organism-based. Also noted: dose 100 mg/kg.
In data set [14] the test system is Mus musculus. Briefly: Anticonvulsant activity in albino CF1 mouse assessed as protection against subcutaneous metrazol-induced seizures at 100 mg/kg, ip measured after 4 hrs. It counts as functional, organism-based. The arrangement: dose 100 mg/kg.
The test system of data set [15] is Mus musculus. The data set is described as follows: Neurotoxicity in albino CF1 mouse at 100 mg/kg, ip measured after 0.5 hr. The note with it: in vivo. Also noted: dose 100 mg/kg, route intraperitoneal. The data set is classed as toxicity, organism-based.
The test system of data set [16] is Mus musculus. Briefly: Neurotoxicity in albino CF1 mouse at 100 mg/kg, ip measured after 4 hrs. The data set is classed as toxicity, organism-based. Also noted: dose 100 mg/kg, route intraperitoneal. The note with it: in vivo.
Data set [17] deals with Mus musculus. Briefly: Anticonvulsant activity in albino CF1 mouse assessed as protection against 32 mA current-induced seizures at 100 mg/kg, ip measured after 0.5 hr. The arrangement: dose 100 mg/kg. It counts as functional, organism-based.
For data set [18], the system named is Mus musculus. The data set is described as follows: Anticonvulsant activity in albino CF1 mouse assessed as protection against 32 mA current-induced seizures at 100 mg/kg, ip measured after 2 hrs. The data set is classed as functional, organism-based. Also noted: dose 100 mg/kg.
The test system of data set [19] is Mus musculus. The data set is described as follows: Anticonvulsant activity in albino CF1 mouse assessed as protection against 32 mA current-induced seizures at 100 mg/kg, ip measured after 4 hrs. It counts as functional, organism-based. The arrangement: dose 100 mg/kg.
For data set [20], the system named is Mus musculus. The data set is described as follows: Neurotoxicity in 32 mA current-induced seizure albino CF1 mouse model at 100 mg/kg, ip measured after 0.5 hr. It counts as toxicity, organism-based. The note with it: in vivo. Also noted: dose 100 mg/kg, route intraperitoneal.
The subject of data set [21] is Mus musculus. The data set is described as follows: Neurotoxicity in 32 mA current-induced seizure albino CF1 mouse model at 100 mg/kg, ip measured after 2 hrs. It counts as toxicity, organism-based. Also noted: dose 100 mg/kg, route intraperitoneal. The note with it: in vivo.
Data set [22] concerns Mus musculus. Briefly: Neurotoxicity in 32 mA current-induced seizure albino CF1 mouse model at 100 mg/kg, ip measured after 4 hrs. It counts as toxicity, organism-based. The arrangement: dose 100 mg/kg, route intraperitoneal. The note with it: in vivo.

Take `O=C1NC(=O)[C@@H](c2cccc(C(F)(F)F)c2)N2CCCC[C@@H]12`: the result in the data set with Mus musculus [1], in the data set with Mus musculus [2], in the data set with Mus musculus [5] and in the data set on Mus musculus [6] was inactive. Also, the Activity result in the data set on Mus musculus [3], in the data set with Mus musculus [4], with Mus musculus [7] and in the data set on Mus musculus [8] was “Non-toxic” in each case.
For the molecule `O=C1NC(=O)[C@@H]2CCCN2[C@H]1c1ccccc1C(F)(F)F`, the result in the data set with Mus musculus [1], in the data set on Mus musculus [9], in the data set on Mus musculus [2], with Mus musculus [10], with Mus musculus [11] and with Mus musculus [12] was inactive. Moreover, the outcome in the data set on Mus musculus [13], in the data set with Mus musculus [14], in the data set with Mus musculus [5], in the data set with Mus musculus [17], in the data set with Mus musculus [6] and with Mus musculus [18] was inactive. The result with Mus musculus [19] was inactive. Further, the Activity entry in the data set on Mus musculus [3], in the data set on Mus musculus [15], in the data set with Mus musculus [4], with Mus musculus [16], in the data set on Mus musculus [7] and in the data set with Mus musculus [20] was “Non-toxic” in each case. Further, the Activity result in the data set on Mus musculus [8], in the data set with Mus musculus [21] and with Mus musculus [22] was “Non-toxic” each time.
Regarding `O=C1NC(=O)[C@@H]2CCCN2[C@H]1c1c(F)cccc1Cl` (mixture of isomers), the result in the data set on Mus musculus [1], in the data set with Mus musculus [9], with Mus musculus [2], with Mus musculus [10], in the data set with Mus musculus [11] and in the data set on Mus musculus [12] was inactive. Besides, the result in the data set on Mus musculus [13], with Mus musculus [14], in the data set with Mus musculus [5], in the data set on Mus musculus [17], in the data set on Mus musculus [6] and in the data set with Mus musculus [18] was inactive. Further, the result in the data set on Mus musculus [19] was inactive. The Activity result in the data set on Mus musculus [3], with Mus musculus [15], with Mus musculus [4], in the data set on Mus musculus [16], with Mus musculus [7] and in the data set on Mus musculus [20] was “Non-toxic” each time. Moreover, the Activity entry in the data set with Mus musculus [8], in the data set on Mus musculus [21] and with Mus musculus [22] was “Non-toxic” each time.
As for `O=C1NC(=O)[C@@H]2CCCN2[C@H]1c1c(F)cccc1F` (mixture of isomers), the result with Mus musculus [1] and with Mus musculus [5] was Active. The result in the data set with Mus musculus [9], in the data set with Mus musculus [2], in the data set on Mus musculus [10], in the data set with Mus musculus [11], with Mus musculus [12] and with Mus musculus [13] was inactive. In addition, the outcome with Mus musculus [14], with Mus musculus [17], in the data set on Mus musculus [6], in the data set on Mus musculus [18] and in the data set on Mus musculus [19] was inactive. Moreover, the Activity result with Mus musculus [3], in the data set with Mus musculus [15], with Mus musculus [4], with Mus musculus [16], in the data set with Mus musculus [7] and in the data set with Mus musculus [20] was “Non-toxic” in each case. The Activity result in the data set on Mus musculus [8], in the data set on Mus musculus [21] and in the data set with Mus musculus [22] was “Non-toxic” throughout.
Take `Cl.O=C1NC(=O)[C@@H](c2cccc(C(F)(F)F)c2)N2CCC[C@H]12`: the outcome with Mus musculus [1], in the data set on Mus musculus [5], in the data set on Mus musculus [17] and in the data set with Mus musculus [6] was Active. The result in the data set with Mus musculus [9], in the data set on Mus musculus [2], with Mus musculus [10], in the data set on Mus musculus [18] and in the data set with Mus musculus [19] was inactive. Also, the Activity result in the data set on Mus musculus [3], with Mus musculus [15], in the data set with Mus musculus [4], with Mus musculus [16], with Mus musculus [7] and in the data set with Mus musculus [20] was “Non-toxic” each time. Besides, the Activity result in the data set with Mus musculus [8], with Mus musculus [21] and in the data set with Mus musculus [22] was “Non-toxic” each time.
`O=C1NC(=O)[C@H](c2cccc(C(F)(F)F)c2)N2CCCC[C@H]12`: the outcome in the data set with Mus musculus [1], with Mus musculus [2], with Mus musculus [11], in the data set on Mus musculus [13], in the data set with Mus musculus [5] and in the data set with Mus musculus [6] was inactive. In addition, the Activity entry in the data set with Mus musculus [3], in the data set on Mus musculus [4], in the data set with Mus musculus [7] and with Mus musculus [8] was “Non-toxic” each time.
Turning to `O=C1NC(=O)[C@H](c2cccc(C(F)(F)F)c2)N2CCC[C@H]12`, the result in the data set on Mus musculus [1], in the data set with Mus musculus [9], with Mus musculus [2], in the data set on Mus musculus [10], with Mus musculus [11] and in the data set with Mus musculus [12] was inactive. In addition, the result in the data set with Mus musculus [13], in the data set with Mus musculus [14], with Mus musculus [5], with Mus musculus [17], in the data set with Mus musculus [6] and in the data set with Mus musculus [18] was inactive. Besides, the result in the data set with Mus musculus [19] was inactive. Moreover, the Activity result in the data set on Mus musculus [3], in the data set on Mus musculus [15], in the data set with Mus musculus [4], in the data set with Mus musculus [16], in the data set with Mus musculus [7] and in the data set on Mus musculus [20] was “Non-toxic” in each case. The Activity entry with Mus musculus [8], with Mus musculus [21] and in the data set with Mus musculus [22] was “Non-toxic” throughout.
Consider `O=C1NC(=O)[C@@H]2CCCN2[C@H]1c1cc(F)cc(F)c1`, for which the outcome in the data set on Mus musculus [1], in the data set with Mus musculus [11], in the data set on Mus musculus [12], in the data set with Mus musculus [5] and with Mus musculus [17] was Active. For the same molecule, the outcome in the data set with Mus musculus [9], with Mus musculus [2], in the data set on Mus musculus [10], in the data set with Mus musculus [13], in the data set on Mus musculus [14] and in the data set with Mus musculus [6] was inactive. Besides, the outcome in the data set on Mus musculus [18] and with Mus musculus [19] was inactive. The Activity result in the data set with Mus musculus [3], in the data set on Mus musculus [15], with Mus musculus [4], with Mus musculus [16], with Mus musculus [7] and in the data set on Mus musculus [20] was “Non-toxic” throughout. The Activity result in the data set with Mus musculus [8], in the data set with Mus musculus [21] and in the data set on Mus musculus [22] was “Non-toxic” throughout.

The record behind these values is ChEMBL document CHEMBL3352057, “Novel fluorinated pyrrolo[1,2-a]pyrazine-2,6-dione derivatives: synthesis and anticonvulsant evaluation in animal models of epilepsy” (Bioorg Med Chem, 2014).
